Reference: patent US20260232767A1, “INTERLEUKIN-23 RECEPTOR ANTAGONIST PEPTIDES FOR USE IN THE TREATMENT OF PSORIASIS” (Janssen Pharmaceutica NV, priority 2023, published 2026)

Tested on: subjects with moderate-to-severe plaque psoriasis
Assay: Safety, adverse events, Example 2 through Week 56
Assay type: in vivo, human
Description: The LTE safety analysis was based on randomized participants in Example who entered the present long-term extension study and received at least one dose of study intervention (including a partial dose) during the study period.

[1] = Placebo → 100 mg QD after crossover, through Week 56
[2] = Placebo → 100 mg QD, Week 16 through Week 56
[3] = Placebo → 100 mg QD, LTE Safety analysis set

CC(=O)NCCCC[C@@H]1NC(=O)[C@H](Cc2c[nH]c3c(C)cccc23)NC(=O)[C@H]([C@@H](C)O)NC(=O)[C@H](CC(N)=O)NC(=O)[C@@H](NC(C)=O)C(C)(C)SSC(C)(C)[C@@H](C(=O)N[C@@H](Cc2ccc(OCCN)cc2)C(=O)N[C@@H](Cc2ccc3ccccc3c2)C(=O)NC2(C(=O)N[C@@H](CCC(=O)O)C(=O)N[C@@H](CC(N)=O)C(=O)N[C@@H](Cc3cccnc3)C(=O)N(C)CC(N)=O)CCOCC2)NC1=O [IL-23 receptor antagonist peptide, Ac-[Pen]*-N-T-[W(7-Me)]-[Lys(Ac)]-[Pen]*-Phe[4-(2-aminoethoxy)]-[2-Nal]-[THP]-E-N-[3-Pal]-Sarc-NH2 (*[Pen]-[Pen]* formdisulfidebond)]
9: Subjects with treatment-emergent AE: Nasopharyngitis [1] | Subjects with adverse event: Nasopharyngitis [3]
1: Skin laceration: number of subjects (Combined, through Week 56) | Social circumstances: number of subjects (Combined, through Week 56) | Steatohepatitis: number of subjects (Combined, through Week 56) | Suicide attempt: number of subjects (Combined, through Week 56) | Sunburn: number of subjects (Combined, through Week 56) | Thrombocytopenia: number of subjects (Combined, through Week 56) | Thrombocytosis: number of subjects (Combined, through Week 56) | Tonsillar hypertrophy: number of subjects (Combined, through Week 56) | Tooth fracture: number of subjects (Combined, through Week 56) | Type 2 diabetes mellitus: number of subjects (Combined, through Week 56) | Urinary tract disorder: number of subjects (Combined, through Week 56) | Uterine leiomyoma: number of subjects (Combined, through Week 56) | Ventricular dysfunction: number of subjects (Combined, through Week 56) | Vitamin D deficiency: number of subjects (Combined, through Week 56) | Number of subjects with treatment-emergent AE: Hepatobiliary disorders [2] | Number of subjects with treatment-emergent AE: Hypertransaminasemia [2] | Number of subjects with treatment-emergent AE: Ocular cyst [2] | Number of subjects with treatment-emergent AE: Retinal vein occlusion [2]
0: Subjects with 1 or more treatment-emergent adverse events leading to discontinuation of study agent [1] | Subjects with AE leading to discontinuation: Abdominal discomfort [1] | Subjects with AE leading to discontinuation: Abdominal pain [1] | Subjects with AE leading to discontinuation: Alanine aminotransferase increased [1] | Subjects with AE leading to discontinuation: Aspartate aminotransferase increased [1] | Subjects with AE leading to discontinuation: Asthenia [1] | Subjects with AE leading to discontinuation: Chills [1] | Subjects with AE leading to discontinuation: Ear and labyrinth disorders [1] | Subjects with AE leading to discontinuation: Gamma-glutamyltransferase increased [1] | Subjects with AE leading to discontinuation: Gastrointestinal disorders [1] | Subjects with AE leading to discontinuation: General disorders and administration site conditions [1] | Subjects with AE leading to discontinuation: Headache [1] | Subjects with AE leading to discontinuation: Insomnia [1] | Subjects with AE leading to discontinuation: Investigations [1] | Subjects with AE leading to discontinuation: Nausea [1] | Subjects with AE leading to discontinuation: Nervous system disorders [1] | Subjects with AE leading to discontinuation: Proctalgia [1] | Subjects with AE leading to discontinuation: Psoriasis [1] | Subjects with AE leading to discontinuation: Psychiatric disorders [1] | Subjects with AE leading to discontinuation: Skin and subcutaneous tissue disorders [1] | Subjects with AE leading to discontinuation: Suicide attempt [1] | Subjects with AE leading to discontinuation: Transaminases increased [1] | Subjects with AE leading to discontinuation: Vertigo [1] | Subjects with AE leading to discontinuation: Vomiting [1] | Subjects with AE leading to discontinuation: Weight increased [1] | Subjects with treatment-emergent AE: Cough [1] | Subjects with treatment-emergent AE: Headache [1] | Subjects with treatment-emergent serious AE: COVID-19 [1] | Subjects with treatment-emergent serious AE: Cardiac disorders [1] | Subjects with treatment-emergent serious AE: Coronary artery disease [1] | Subjects with treatment-emergent serious AE: Diverticulitis [1] | Subjects with treatment-emergent serious AE: Foot deformity [1] | Subjects with treatment-emergent serious AE: General disorders and administration site conditions [1] | Subjects with treatment-emergent serious AE: Infected cyst [1] | Subjects with treatment-emergent serious AE: Infections and infestations [1] | Subjects with treatment-emergent serious AE: Injury, poisoning and procedural complications [1] | Subjects with treatment-emergent serious AE: Intervertebral disc protrusion [1] | Subjects with treatment-emergent serious AE: Ligament injury [1] | Subjects with treatment-emergent serious AE: Musculoskeletal and connective tissue disorders [1] | Subjects with treatment-emergent serious AE: Neoplasms benign, malignant and unspecified (incl cysts and polyps) [1] | Subjects with treatment-emergent serious AE: Non-cardiac chest pain [1] | Subjects with treatment-emergent serious AE: Psychiatric disorders [1] | Subjects with treatment-emergent serious AE: Respiratory, thoracic and mediastinal disorders [1] | Subjects with treatment-emergent serious AE: Suicide attempt [1] | Subjects with treatment-emergent serious AE: Tonsillar hypertrophy [1] | Subjects with treatment-emergent serious AE: Uterine leiomyoma [1] | Subjects with treatment-emergent serious AE: Ventricular dysfunction [1] | Number of subjects with treatment-emergent AE: Cholelithiasis [2] | Number of subjects with treatment-emergent AE: Ear and labyrinth disorders [2] | Number of subjects with treatment-emergent AE: Endocrine disorders [2] | Number of subjects with treatment-emergent AE: Eyelid skin dryness [2] | Number of subjects with treatment-emergent AE: Goiter [2] | Number of subjects with treatment-emergent AE: Immune system disorders [2] | Number of subjects with treatment-emergent AE: Insomnia [2] | Number of subjects with treatment-emergent AE: Psychiatric disorders [2] | Number of subjects with treatment-emergent AE: Seasonal allergy [2] | Number of subjects with treatment-emergent AE: Vertigo [2] | Subjects who discontinued study agent because of 1 or more adverse events [3] | Subjects with 1 or more Serious Infections and infestations [3] | Subjects with adverse event: Headache [3] | Subjects with adverse event: Meniscus injury [3] | Subjects with adverse event: Sinusitis [3] | Subjects with adverse event: Vomiting [3] | Subjects with serious adverse event: Coronary artery disease [3] | Subjects with serious adverse event: Diverticulitis [3] | Subjects with serious adverse event: Foot deformity [3] | Subjects with serious adverse event: Intervertebral disc protrusion [3] | Subjects with serious adverse event: Ligament injury [3] | Subjects with serious adverse event: Non-cardiac chest pain [3] | Subjects with serious adverse event: Tonsillar hypertrophy [3] | Subjects with serious adverse event: Uterine leiomyoma [3]
(0.4%): Skin laceration: % of subjects (Combined, through Week 56) | Social circumstances: % of subjects (Combined, through Week 56) | Steatohepatitis: % of subjects (Combined, through Week 56) | Suicide attempt: % of subjects (Combined, through Week 56) | Sunburn: % of subjects (Combined, through Week 56) | Thrombocytopenia: % of subjects (Combined, through Week 56) | Thrombocytosis: % of subjects (Combined, through Week 56) | Tonsillar hypertrophy: % of subjects (Combined, through Week 56) | Tooth fracture: % of subjects (Combined, through Week 56) | Type 2 diabetes mellitus: % of subjects (Combined, through Week 56) | Urinary tract disorder: % of subjects (Combined, through Week 56) | Uterine leiomyoma: % of subjects (Combined, through Week 56) | Ventricular dysfunction: % of subjects (Combined, through Week 56) | Vitamin D deficiency: % of subjects (Combined, through Week 56)
(6.5%): Skin and subcutaneous tissue disorders: % of subjects (Combined, through Week 56)
(2.8%): Vascular disorders: % of subjects (Combined, through Week 56)
2: Seasonal allergy: number of subjects (Combined, through Week 56) | Skin papilloma: number of subjects (Combined, through Week 56) | Vertigo: number of subjects (Combined, through Week 56) | Number of subjects with treatment-emergent AE: Eye disorders [2]
(0.8%): Skin papilloma: % of subjects (Combined, through Week 56) | Vertigo: % of subjects (Combined, through Week 56)
(5.7%): Subjects with treatment-emergent AE: Eye disorders (%) [2]
(2.9%): Subjects with treatment-emergent AE: Hepatobiliary disorders (%) [2] | Subjects with treatment-emergent AE: Hypertransaminasemia (%) [2] | Subjects with treatment-emergent AE: Ocular cyst (%) [2] | Subjects with treatment-emergent AE: Retinal vein occlusion (%) [2]
7: Vascular disorders: number of subjects (Combined, through Week 56)
16: Skin and subcutaneous tissue disorders: number of subjects (Combined, through Week 56)
no deaths: Deaths (LTE study period)
